What was measured:
cocklebur = test: Test B pre/postemergence cocklebur; format: in vivo, Xanthium strumarium
Outline: (§1)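 Test chemicals in a non-phytotoxic solvent mixture with surfactant were sprayed preemergence onto planted seeds and postemergence onto plants 2 to 18 cm tall (1- to 4-leaf stage). After twelve to sixteen days in a greenhouse, injury was visually rated against untreated controls from 0 (no effect) to 10 (complete control).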

wheat = test: Test B pre/postemergence wheat; format: in vivo, Triticum aestivum
Outline: as §1

pigweed = test: Test B pre/postemergence pigweed; format: in vivo, Amaranthus retroflexus
Outline: as §1

rape = test: Test B pre/postemergence rape; format: in vivo, Brassica napus
Outline: as §1

sugar beet = test: Test B pre/postemergence sugar beet; format: in vivo, Beta vulgaris
Outline: as §1

giant foxtail = test: Test B pre/postemergence giant foxtail; format: in vivo, Setaria faberii
Outline: as §1

morningglory = test: Test B pre/postemergence morningglory; format: in vivo, Ipomoea hederacea
Outline: as §1

wild oat = test: Test B pre/postemergence wild oat; format: in vivo, Avena fatua
Outline: as §1

velvetleaf = test: Test B pre/postemergence velvetleaf; format: in vivo, Abutilon theophrasti
Outline: as §1

crabgrass = test: Test B pre/postemergence crabgrass; format: in vivo, Digitaria sanguinalis
Outline: as §1

purple nutsedge = test: Test B pre/postemergence purple nutsedge; format: in vivo, Cyperus rotundus
Outline: as §1

soybean = test: Test B pre/postemergence soybean; format: in vivo, Glycine max
Outline: as §1

corn = test: Test B pre/postemergence corn; format: in vivo, Zea mays
Outline: as §1

duck salad = test: Test B flood test duck salad; format: in vivo, Heteranthera limosa
Outline: (§2)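 Each value is a visual injury score relative to controls, with 10 meaning complete control and 0 no effect. Evaluation took place twelve to sixteen days after the 2-leaf-stage plants were treated and kept in the greenhouse.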

rice = test: Test B flood test rice; format: in vivo, Oryza sativa
Outline: as §2

bamyardgrass = test: Test B flood test barnyardgrass; format: in vivo, Echinochloa crus-galli
Outline: as §2

[1] = Preemergence, Rate 62 g/ha, scale of 0 to 10 where 0 is no effect and 10 is complete control
[2] = Preemergence, Rate 250 g/ha, scale of 0 to 10 where 0 is no effect and 10 is complete control
[3] = Rate 62 g/ha, Postemergence, scale 0 to 10, 0 no effect, 10 complete control
[4] = Rate 125 g/ha, Postemergence, scale of 0 to 10 where 0 is no effect and 10 is complete control
[5] = Rate 250 g/ha, Postemergence, scale of 0 to 10 where 0 is no effect and 10 is complete control
[6] = Rate 500 g/ha, Postemergence, scale 0 to 10, 0 no effect, 10 complete control
[7] = Preemergence, Rate 500 g/ha, scale of 0 to 10 where 0 is no effect and 10 is complete control
[8] = Rate 62 g/ha, headed Pre-emergence (flood test species), scale 0 to 10 (0 no effect, 10 complete control)
[9] = Rate 125 g/ha, Pre-emergence, flood test species, scale 0 to 10 where 0 is no effect and 10 is complete control
[10] = Rate 250 g/ha, Pre-emergence, flood-test species, scale 0 to 10, 0 is no effect, 10 is complete control
[11] = Rate 500 g/ha, Pre-emergence, flood test species, scale 0 to 10 (0 no effect, 10 complete control)

Cc1ccccc1-n1c(=O)on(C(=O)N(c2ccncc2)C(C)C)c1=O [Compound 301]
0: Cocklebur plant response rating (cocklebur; [1]) | Cocklebur plant response rating (0 to 10 scale) (cocklebur; Preemergence, Rate 125 g/ha) | Cocklebur plant response rating (cocklebur; [2]) | Cocklebur plant response rating (cocklebur; [3]) | Cocklebur plant response rating (cocklebur; [4]) | Plant response rating, Cocklebur (cocklebur; [5]) | Cocklebur plant response rating (cocklebur; [6]) | Wheat plant response rating (wheat; [1]) | Wheat plant response rating (0 to 10 scale) (wheat; Preemergence, Rate 125 g/ha) | Wheat plant response rating (wheat; [2]) | Wheat plant response rating (wheat; [7]) | Wheat plant response rating (wheat; [3]) | Wheat plant response rating (wheat; [4]) | Plant response rating, Wheat (wheat; [5]) | Redroot pigweed plant response rating (pigweed; [1]) | Redroot pigweed plant response rating (0 to 10 scale) (pigweed; Preemergence, Rate 125 g/ha) | Redroot pigweed plant response rating (pigweed; [2]) | Redroot pigweed plant response rating (pigweed; [7]) | Redroot pigweed plant response rating (pigweed; [3]) | Redroot pigweed plant response rating (pigweed; [4]) | Plant response rating, Redroot pigweed (pigweed; [5]) | Rape plant response rating (rape; [1]) | Rape plant response rating (0 to 10 scale) (rape; Preemergence, Rate 125 g/ha) | Rape plant response rating (rape; [2]) | Rape plant response rating (rape; [7]) | Rape plant response rating (rape; [3]) | Rape plant response rating (rape; [4]) | Plant response rating, Rape (rape; [5]) | Sugarbeets plant response rating (sugar beet; [1]) | Sugarbeets plant response rating (0 to 10 scale) (sugar beet; Preemergence, Rate 125 g/ha) | Sugarbeets plant response rating (sugar beet; [2]) | Sugarbeets plant response rating (sugar beet; [7]) | Sugarbeets plant response rating (sugar beet; [3]) | Sugarbeets plant response rating (sugar beet; [4]) | Plant response rating, Sugarbeets (sugar beet; [5]) | Giant foxtail plant response rating (giant foxtail; [1]) | Giant foxtail plant response rating (0 to 10 scale) (giant foxtail; Preemergence, Rate 125 g/ha) | Giant foxtail plant response rating (giant foxtail; [2]) | Giant foxtail plant response rating (giant foxtail; [7]) | Giant foxtail plant response rating (giant foxtail; [3]) | Giant foxtail plant response rating (giant foxtail; [4]) | Plant response rating, Giant foxtail (giant foxtail; [5]) | Morningglory plant response rating (morningglory; [1]) | Morningglory plant response rating (0 to 10 scale) (morningglory; Preemergence, Rate 125 g/ha) | Morningglory plant response rating (morningglory; [2]) | Morningglory plant response rating (morningglory; [7]) | Morningglory plant response rating (morningglory; [3]) | Morningglory plant response rating (morningglory; [4]) | Plant response rating, Morningglory (morningglory; [5]) | Wild oats plant response rating (wild oat; [1]) | Wild oats plant response rating (0 to 10 scale) (wild oat; Preemergence, Rate 125 g/ha) | Wild oats plant response rating (wild oat; [2]) | Wild oats plant response rating (wild oat; [7]) | Wild oats plant response rating (wild oat; [3]) | Wild oats plant response rating (wild oat; [4]) | Plant response rating, Wild oats (wild oat; [5]) | Velvetleaf plant response rating (velvetleaf; [1]) | Velvetleaf plant response rating (0 to 10 scale) (velvetleaf; Preemergence, Rate 125 g/ha) | Velvetleaf plant response rating (velvetleaf; [2]) | Velvetleaf plant response rating (velvetleaf; [7]) | Velvetleaf plant response rating (velvetleaf; [3]) | Velvetleaf plant response rating (velvetleaf; [4]) | Plant response rating, Velvetleaf (velvetleaf; [5]) | Crabgrass plant response rating (crabgrass; [1]) | Crabgrass plant response rating (0 to 10 scale) (crabgrass; Preemergence, Rate 125 g/ha) | Crabgrass plant response rating (crabgrass; [2]) | Crabgrass plant response rating (crabgrass; [7]) | Crabgrass plant response rating (crabgrass; [3]) | Crabgrass plant response rating (crabgrass; [4]) | Plant response rating, Crabgrass (crabgrass; [5]) | Nutsedge plant response rating (purple nutsedge; [1]) | Nutsedge plant response rating (0 to 10 scale) (purple nutsedge; Preemergence, Rate 125 g/ha) | Nutsedge plant response rating (purple nutsedge; [2]) | Nutsedge plant response rating (purple nutsedge; [7]) | Nutsedge plant response rating (purple nutsedge; [3]) | Nutsedge plant response rating (purple nutsedge; [4]) | Plant response rating, Nutsedge (purple nutsedge; [5]) | Soybean plant response rating (soybean; [1]) | Soybean plant response rating (0 to 10 scale) (soybean; Preemergence, Rate 125 g/ha) | Soybean plant response rating (soybean; [2]) | Soybean plant response rating (soybean; [7]) | Soybean plant response rating (soybean; [3]) | Soybean plant response rating (soybean; [4]) | Plant response rating, Soybean (soybean; [5]) | Corn plant response rating (corn; [1]) | Corn plant response rating (0 to 10 scale) (corn; Preemergence, Rate 125 g/ha) | Corn plant response rating (corn; [2]) | Corn plant response rating (corn; [7]) | Corn plant response rating (corn; [3]) | Corn plant response rating (corn; [4]) | Plant response rating, Corn (corn; [5]) | Corn plant response rating (corn; [6]) | Ducksalad plant response rating (duck salad; [8]) | Ducksalad plant response rating (duck salad; [9]) | Ducksalad plant response rating (duck salad; [10]) | Ducksalad plant response rating (duck salad; [11]) | Rice plant response rating (rice; [8]) | Rice plant response rating (rice; [9]) | Rice plant response rating (rice; [10]) | Rice plant response rating (rice; [11]) | Barnyardgrass plant response rating (bamyardgrass; [8]) | Barnyardgrass plant response rating (bamyardgrass; [9]) | Barnyardgrass plant response rating (bamyardgrass; [10]) | Barnyardgrass plant response rating (bamyardgrass; [11])

— patent publication US6737383B1, “Herbicidal oxadiazolidines” (priority 1999, dated 2004)
